From ChEMBL document CHEMBL2202965 (Bioorg Med Chem Lett, 2012)
Active and inactive are the calls of the source. The rule behind the calls is not given here. Non-standard residues stand in square brackets, D forms with d. Residues, ends and D or L forms follow the SMILES beside them. ξ: configuration not given here. *: point of attachment. NH(2-(1-naphthyl)ethyl) = c1ccc2c(CCN*)cccc2c1; Phe(4-CONH2) = NC(=O)c1ccc(C[C@H](N)C(=O)O)cc1; Phe(4-COOH) = N[C@@H](Cc1ccc(C(=O)O)cc1)C(=O)O; Tryptamide = c1ccc2c(CCN*)c[nH]c2c1; Tic = O=C(O)[C@@H]1Cc2ccccc2CN1; X3 = c1ccc(-c2ccc(CCN*)cc2)cc1; X2 = c1cc(C2CCCCC2)ccc1CCN*; ξTic = O=C(O)C1Cc2ccccc2CN1; X1 = c1ccc2cc(CCN*)ccc2c1; NHDecyl = CCCCCCCCCCN*; NHHex = CCCCCCN*

Experiments:
[1] = biological target: Kappa-type opioid receptor (Cavia porcellus, UniProt P41144); test: Displacement of [3H]U69,593 from kappa opioid receptor in guinea pig brain membrane after 2 hrs; type: cell membranes
Kappa-type opioid receptor, sequence (P41144 whole entry): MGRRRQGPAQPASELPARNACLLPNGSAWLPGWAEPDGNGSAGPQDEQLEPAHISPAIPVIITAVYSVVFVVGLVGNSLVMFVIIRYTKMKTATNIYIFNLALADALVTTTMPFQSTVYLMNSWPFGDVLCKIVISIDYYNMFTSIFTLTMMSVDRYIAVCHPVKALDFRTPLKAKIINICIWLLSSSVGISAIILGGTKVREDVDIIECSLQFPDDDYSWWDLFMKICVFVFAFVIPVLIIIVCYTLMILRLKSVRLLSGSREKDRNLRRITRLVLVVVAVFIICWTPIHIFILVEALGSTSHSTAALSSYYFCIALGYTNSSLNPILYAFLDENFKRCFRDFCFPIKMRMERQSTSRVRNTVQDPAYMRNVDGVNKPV

Cavia porcellus [2] = species: Cavia porcellus; test: (§1) Partial agonist activity at delta opioid receptor in guinea pig ileum; type: functional
[3] = biological target: Delta-type opioid receptor (Mus musculus) (UniProt P32300); test: Agonist activity at delta opioid receptor in mouse vas deferens relative to DPDPE; type: functional, tissue-based
Delta-type opioid receptor (Mus musculus), sequence (P32300 whole entry): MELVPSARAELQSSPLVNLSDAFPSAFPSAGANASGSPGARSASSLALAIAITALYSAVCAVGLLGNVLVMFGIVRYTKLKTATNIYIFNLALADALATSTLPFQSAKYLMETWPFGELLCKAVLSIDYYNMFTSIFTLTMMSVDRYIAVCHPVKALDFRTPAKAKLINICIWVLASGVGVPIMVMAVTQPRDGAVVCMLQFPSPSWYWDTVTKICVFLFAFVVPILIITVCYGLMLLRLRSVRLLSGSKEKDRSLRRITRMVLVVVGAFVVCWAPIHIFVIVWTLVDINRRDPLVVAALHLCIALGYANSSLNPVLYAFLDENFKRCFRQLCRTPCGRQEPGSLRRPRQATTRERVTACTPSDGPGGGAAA

[4] = biological target: Delta-type opioid receptor (Rattus norvegicus) (UniProt P33533); test: Displacement of [3H]DSLET from delta opioid receptor in rat brain membrane after 2 hrs relative to DPDPE; type: cell membranes
Delta-type opioid receptor (Rattus norvegicus), sequence (P33533 whole entry): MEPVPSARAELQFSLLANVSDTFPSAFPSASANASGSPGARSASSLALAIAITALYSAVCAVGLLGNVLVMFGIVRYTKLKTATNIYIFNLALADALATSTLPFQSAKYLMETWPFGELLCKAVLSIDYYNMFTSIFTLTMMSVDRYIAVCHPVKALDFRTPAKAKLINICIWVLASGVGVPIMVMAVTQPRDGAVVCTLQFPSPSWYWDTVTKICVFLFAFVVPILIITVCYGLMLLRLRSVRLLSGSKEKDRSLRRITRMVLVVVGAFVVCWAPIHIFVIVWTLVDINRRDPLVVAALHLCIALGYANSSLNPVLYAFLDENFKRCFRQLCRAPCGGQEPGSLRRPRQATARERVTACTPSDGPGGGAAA

[5] = Agonist activity at delta opioid receptor in guinea pig ileum; conditions: Cavia porcellus
[6] = biological target: Delta-type opioid receptor (Homo sapiens) (UniProt P41143); test: Antagonist activity at human delta opioid receptor expressed in HEK293 cells by [35S]GTP binding assay; type: functional, cell-based
Delta-type opioid receptor (Homo sapiens), sequence (P41143 whole entry): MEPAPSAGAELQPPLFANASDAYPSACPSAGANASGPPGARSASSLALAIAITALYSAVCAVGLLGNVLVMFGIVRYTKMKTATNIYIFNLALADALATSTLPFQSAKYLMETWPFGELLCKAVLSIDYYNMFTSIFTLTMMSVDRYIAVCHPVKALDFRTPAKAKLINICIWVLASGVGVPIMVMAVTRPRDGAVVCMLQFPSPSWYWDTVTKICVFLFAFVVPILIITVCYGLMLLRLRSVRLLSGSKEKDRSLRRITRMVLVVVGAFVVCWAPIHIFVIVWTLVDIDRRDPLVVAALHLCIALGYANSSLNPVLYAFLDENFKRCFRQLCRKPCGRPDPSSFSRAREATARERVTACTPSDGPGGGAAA

[7] = as §1; type: functional; conditions: Cavia porcellus
Cavia porcellus [8] = species: Cavia porcellus; test: Agonist activity at delta opioid receptor in guinea pig ileum at 10 uM; type: functional, tissue-based
[9] = biological target: Delta-type opioid receptor (Homo sapiens) (UniProt P41143); test: Partial agonist activity at human delta opioid receptor expressed in HEK293 cells by [35S]GTP binding assay; type: functional, cell-based
[10] = biological target: Delta-type opioid receptor (Homo sapiens) (UniProt P41143); test: Agonist activity at human delta opioid receptor expressed in HEK293 cells by [35S]GTP binding assay relative to DPDPE; type: functional, cell-based

`CCCCCCNC(=O)c1ccc(C[C@H](N)C(=O)N2Cc3ccccc3C[C@H]2C(=O)N[C@@H](Cc2ccccc2)C(=O)N[C@@H](Cc2ccccc2)C(=O)O)cc1` (H-[Phe(4-COOH)](NHHex)[Tic]FF-OH) gave a Ki [1] of over 10 µM.

In the case of `N[C@@H](Cc1ccc(C(=O)NCCc2ccc3ccccc3c2)cc1)C(=O)N1Cc2ccccc2C[C@H]1C(=O)N[C@@H](Cc1ccccc1)C(=O)N[C@@H](Cc1ccccc1)C(=O)O` (H-[Phe(4-COOH)](X1)[Tic]FF-OH), the Ki [1] is reported as over 10 µM, the Activity (Cavia porcellus [2]) is reported as “Active” and the fold change (FC) [3] is reported as 2. For the same molecule, the fold change (FC) [4] was 5.

For `N[C@@H](Cc1ccc(O)cc1)C(=O)N1Cc2ccccc2C[C@H]1C(=O)N[C@@H](Cc1ccccc1)C(=O)N[C@@H](Cc1ccccc1)C(=O)O` (H-Y[Tic]FF-OH), the IC50 [5] was over 10 µM, the Ki [1] was over 10 µM and the Activity [6] was “Active”.

In the case of `N[C@@H](Cc1ccc(C(=O)NCCc2ccc(C3CCCCC3)cc2)cc1)C(=O)N1Cc2ccccc2C[C@H]1C(=O)N[C@@H](Cc1ccccc1)C(=O)N[C@@H](Cc1ccccc1)C(=O)O` (H-[Phe(4-COOH)](X2)[Tic]FF-OH) [listing 1 of 2 here], the Ki [1] is reported as over 10 µM.

`CCCCCCCCCCNC(=O)c1ccc(C[C@H](N)C(=O)N2Cc3ccccc3C[C@H]2C(=O)N[C@@H](Cc2ccccc2)C(=O)N[C@@H](Cc2ccccc2)C(=O)O)cc1` (H-[Phe(4-COOH)](NHDecyl)[Tic]FF-OH) showed a Ki [1] of over 10 µM.

`N[C@@H](Cc1ccc(C(=O)NCCc2ccc(C3CCCCC3)cc2)cc1)C(=O)N1Cc2ccccc2C[C@H]1C(=O)N[C@@H](Cc1ccccc1)C(=O)N[C@@H](Cc1ccccc1)C(=O)O` (H-[Phe(4-COOH)](X2)[Tic]FF-OH) [listing 2 of 2 here] showed an IC35 [7] of 0.0234 µM.

In the case of `N[C@@H](Cc1ccc(C(=O)NCCc2c[nH]c3ccccc23)cc1)C(=O)N1Cc2ccccc2C[C@H]1C(=O)N[C@@H](Cc1ccccc1)C(=O)N[C@@H](Cc1ccccc1)C(=O)O` (H-[Phe(4-COOH)](Tryptamide)[Tic]FF-OH), the Ki [1] is reported as over 10 µM and the Activity (Cavia porcellus [2]) is reported as “Active”.

With `N[C@@H](Cc1ccc(C(=O)NCCc2cccc3ccccc23)cc1)C(=O)N1Cc2ccccc2C[C@H]1C(=O)N[C@@H](Cc1ccccc1)C(=O)N[C@@H](Cc1ccccc1)C(=O)O` (H-[Phe(4-COOH)](NH(2-(1-naphthyl)ethyl))[Tic]FF-OH) the Activity (Cavia porcellus [8]) was “inactive”, the Ki [1] was over 10 µM and the fold change (FC) [3] was 2. It also gave a fold change (FC) [4] of 5.

`N[C@@H](Cc1ccc(C(=O)NCCc2ccc(-c3ccccc3)cc2)cc1)C(=O)N1Cc2ccccc2CC1C(=O)N[C@@H](Cc1ccccc1)C(=O)N[C@@H](Cc1ccccc1)C(=O)O` (some centres not stated) (H-[Phe(4-COOH)](X3)[ξTic]FF-OH) showed a Ki [1] of over 10 µM, an ED50 [9] of 0.000413 µM and a Ratio [10] of 0.678.

For `NC(=O)c1ccc(C[C@H](N)C(=O)N2Cc3ccccc3C[C@H]2C(=O)N[C@@H](Cc2ccccc2)C(=O)N[C@@H](Cc2ccccc2)C(=O)O)cc1` (H-[Phe(4-CONH2)][Tic]FF-OH), the Ki [1] was over 10 µM and the Activity [6] was “Active”.
